This note sets out measurements from patent publication US20230391780A1, “COMPOSITIONS AND METHODS FOR TREATING KIT- AND PDGFRA-MEDIATED DISEASES” (Blueprint Medicines Corporation, priority 2020, published 2023).

A word on the Kd: it is the free concentration of one partner at which half of the binding sites on the other are occupied at equilibrium, for simple one-to-one binding. Lower therefore signals tighter binding.

Read-outs that look alike come from different tables or passages of the source.

In one data set the target is T1, wt KIT kinase (Homo sapiens, UniProt P10721).
T1 construct: made in house; host or cells: E. coli derived from BL21, infected with T7 phage
T1 sequence (P10721 26-976): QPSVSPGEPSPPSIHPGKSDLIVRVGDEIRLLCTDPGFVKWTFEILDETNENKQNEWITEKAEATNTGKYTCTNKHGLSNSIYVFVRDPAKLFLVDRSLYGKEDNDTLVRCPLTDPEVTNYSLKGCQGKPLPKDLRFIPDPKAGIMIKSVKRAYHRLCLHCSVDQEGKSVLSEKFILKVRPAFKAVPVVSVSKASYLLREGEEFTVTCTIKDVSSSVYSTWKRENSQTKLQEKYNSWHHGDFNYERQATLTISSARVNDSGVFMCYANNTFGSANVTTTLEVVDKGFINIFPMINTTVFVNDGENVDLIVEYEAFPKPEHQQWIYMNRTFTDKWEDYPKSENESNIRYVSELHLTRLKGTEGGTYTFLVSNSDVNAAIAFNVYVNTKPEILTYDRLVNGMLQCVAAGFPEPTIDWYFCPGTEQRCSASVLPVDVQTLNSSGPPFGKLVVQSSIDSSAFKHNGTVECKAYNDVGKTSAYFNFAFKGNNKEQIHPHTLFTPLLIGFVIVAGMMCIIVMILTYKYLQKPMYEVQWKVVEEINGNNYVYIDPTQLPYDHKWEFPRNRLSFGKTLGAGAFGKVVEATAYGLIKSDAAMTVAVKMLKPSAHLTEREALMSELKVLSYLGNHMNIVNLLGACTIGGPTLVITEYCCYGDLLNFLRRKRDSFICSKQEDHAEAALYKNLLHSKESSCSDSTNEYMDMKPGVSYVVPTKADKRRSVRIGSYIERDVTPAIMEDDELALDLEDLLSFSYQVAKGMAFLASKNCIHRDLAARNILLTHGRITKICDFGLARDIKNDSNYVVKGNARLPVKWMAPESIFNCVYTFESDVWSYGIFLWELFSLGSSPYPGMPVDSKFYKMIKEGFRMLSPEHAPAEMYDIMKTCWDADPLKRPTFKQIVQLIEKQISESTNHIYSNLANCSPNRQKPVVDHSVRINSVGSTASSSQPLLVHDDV
Briefly: Wild-type KIT Kd determination (phage-tagged kinase competition binding, qPCR). As to the method:
Kd Determinations. For most assays, including wt KIT kinase, kinase-tagged T7 phage strains were prepared in an E. coli host derived from the BL21 strain. E. coli were grown to log-phase and infected with T7 phage and incubated with shaking at 32° C. until lysis. […] The liganded beads were blocked with excess biotin and washed with blocking buffer (SeaBlock (Pierce), 1% BSA, 0.05% Tween 20, 1 mM DTT) to remove unbound ligand and to reduce non-specific binding. […] Test compounds were prepared as 111×stocks in 100% DMSO. Kds were determined using an 11-point 3-fold compound dilution series with three DMSO control points. […] The compounds were then diluted directly into the assays such that the final concentration of DMSO was 0.9%. All reactions were performed in polypropylene 384-well plate. Each was a final volume of 0.02 ml. […] The kinase concentration in the eluates was measured by qPCR.
Binding Constants (Kds). Binding constants (Kds) were calculated with a standard dose-response curve using the Hill equation: Response=Background+Signal−Background 1+(KdHill Slope/DoseHill Slope). The Hill Slope was set to −1. Curves were fitted using a non-linear least square fit with the Levenberg-Marquardt algorithm.
(Quantitative PCR measures a nucleic acid by following its amplification.)

A further data set deals with PDGFRα D842V (Homo sapiens, UniProt P16234, D842V). Briefly: PDGFRα D842V biochemical enzymatic activity assay (EZReader 2 mobility shift). The conditions noted are these: ATP at APPKM (25 μM), 90 minutes. An excerpt: (§1) PDGFRα and KIT enzymatic activity was monitored using the Perkin Elmer electrophoretic mobility shift technology platform, the EZReader 2.
Sequence of PDGFRα D842V (P16234 24-1089 D842V): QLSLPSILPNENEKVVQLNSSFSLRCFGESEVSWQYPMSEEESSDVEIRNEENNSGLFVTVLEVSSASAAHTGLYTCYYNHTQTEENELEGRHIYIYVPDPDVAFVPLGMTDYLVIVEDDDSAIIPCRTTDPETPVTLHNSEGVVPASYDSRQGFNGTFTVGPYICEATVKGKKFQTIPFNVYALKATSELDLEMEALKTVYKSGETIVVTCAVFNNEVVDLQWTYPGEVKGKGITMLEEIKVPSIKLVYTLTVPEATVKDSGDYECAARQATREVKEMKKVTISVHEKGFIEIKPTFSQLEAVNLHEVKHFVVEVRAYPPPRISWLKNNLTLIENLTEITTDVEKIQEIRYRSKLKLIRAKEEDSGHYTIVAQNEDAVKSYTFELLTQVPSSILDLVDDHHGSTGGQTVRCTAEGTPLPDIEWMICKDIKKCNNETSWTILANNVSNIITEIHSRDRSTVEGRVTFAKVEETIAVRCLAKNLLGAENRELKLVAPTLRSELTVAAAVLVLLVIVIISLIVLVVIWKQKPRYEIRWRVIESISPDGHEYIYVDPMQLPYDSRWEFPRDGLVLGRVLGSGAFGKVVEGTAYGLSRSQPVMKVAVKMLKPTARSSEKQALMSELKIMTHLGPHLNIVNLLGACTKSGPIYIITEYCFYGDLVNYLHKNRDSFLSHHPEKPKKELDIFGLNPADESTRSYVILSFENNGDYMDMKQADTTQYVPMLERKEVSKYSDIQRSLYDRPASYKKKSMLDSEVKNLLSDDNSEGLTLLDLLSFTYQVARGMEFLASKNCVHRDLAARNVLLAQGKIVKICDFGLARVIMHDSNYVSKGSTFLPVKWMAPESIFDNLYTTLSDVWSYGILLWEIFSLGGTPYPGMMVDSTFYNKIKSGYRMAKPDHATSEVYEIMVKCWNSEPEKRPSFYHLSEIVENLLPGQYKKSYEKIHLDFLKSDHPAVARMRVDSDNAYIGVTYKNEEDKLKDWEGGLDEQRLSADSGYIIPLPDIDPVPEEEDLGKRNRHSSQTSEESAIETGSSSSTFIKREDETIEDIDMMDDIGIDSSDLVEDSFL
(§2) Within the linear, steady-state phase of the kinase enzymatic reaction, the mixed pool of phosphorylated (product) and non-phosphorylated (substrate) peptides was passed through the microfluidic system of the PerkinElmer EZ Reader 2, under an applied electric potential difference. The presence of the phosphate group on the product peptide provided a difference in mass and charge between that of the substrate peptide, resulting in a separation of the substrate and product pools in the sample (Perrin et al., Expert Opin Drug Discovery 2010, Jan. 5(1):51-63).
(§3) As the product and substrate peptide mixture passes the lasers within the instrument, these pools are detected (λex=488 nm, λem=568 nm) and resolved as separate peaks. The ratio between these peaks reflects the activity of the compound at that concentration, in that well, under those conditions.
(§4) All test articles were dissolved in 100% DMSO at a stock concentration of 10 mM. A 100×, 10-point, 4-fold serial dilution of all test compounds was created in 100% DMSO, starting at a relevant concentration, usually 1 mM. A volume of 0.130 μL of each concentration was transferred to the relevant well of a 384-well assay plate (Greiner 781 201) using a TTPLabtech Mosquito nano-liter dispenser. Using the Multidrop, the remaining constituents of the reaction were then added to the 0.130 μL of compound as follows:
The reaction was stopped by the addition of 70 μl of Stop buffer (100 mM HEPES pH 7.5, 0.015% Brij 35, 35 mM EDTA and 0.2% of Coating Reagent 3, Caliper Lifesciences). The plate was read on a Caliper EZReader 2.

The target in another data set is KIT D816V (Homo sapiens, UniProt P10721, D816V). Briefly: KIT D816V biochemical enzymatic activity assay (EZReader 2 mobility shift). The conditions noted are these: ATP at APPKM (20 μM), 60 minutes.
Sequence of KIT D816V (P10721 26-976 D816V): as the sequence (P10721 26-976) above, with D791V counted along it
From the text: as §1, §2, §3, §4
The reaction was stopped by the addition of 70 μl of Stop buffer (100 mM HEPES pH 7.5, Brij 35, 35 mM EDTA and 0.2% of Coating Reagent 3, Caliper Lifesciences). The plate was read on a Caliper EZReader 2.

Data set [1] can be described thus: Brain penetration in rats, brain to plasma ratios after 24 h IV infusion. The data set is classed as in vivo, Sprague-Dawley rats. The conditions noted are these: for Kp uu at 24 h: Sprague-Dawley, brain / plasma, intravenous, 1 mg/kg/hr; for Kp uu at 24 h / Rat Kp: Table 3B; for Rat Kp: methods as for compound 4. An excerpt: To understand the brain penetration, brain to plasma ratios of the compounds were obtained in Sprague-Dawley (SD) rats. In vivo equilibrium distribution between blood and brain in preclinical species such as rats is a commonly used parameter to evaluate brain penetration. Kp,brain is the ratio of concentrations in brain and blood (Cbrain/Cplasma). The compound's passive diffusion characteristics, its affinity for membrane transporters at the blood-brain barrier (BBB), and the relative drug binding affinity differences between the plasma proteins and brain tissue influence the Kp,brain.
The animals received IV infusion of 1 mg/kg/hr of the compound over 24 hours via jugular vein cannulation. At 24 hours, blood was collected via tail vein bleeding or cardiac puncture (under anesthesia) and centrifuged to obtain plasma samples. Brain tissues were collected and homogenized with phosphate-buffered saline (PBS). The concentrations of the compounds were obtained in the plasma and brain homogenates by LC-MS/MS analysis.

Data set [2] addresses T2, KIT D816V (HMC1.2 cells, KIT V560G and D816V) (Homo sapiens, UniProt P10721, D816V/V560G).
T2 construct: endogenous in cells; host or cells: HMC1.2 (mast cell leukemia cell line)
Briefly: HMC1.2 autophosphorylation assay (phospho-Y719 KIT AlphaLISA). The conditions noted are these: 90 minutes, KIT autophosphorylation at tyrosine 719, read-out: KIT (P-KIT HMC1.2 (nM)). In kind it is cell-based. As to the method:
10,000 HMC1.2 cells were incubated in 22 μL culture media (phenol-red free IMDM, no serum) in each well of a 384-well plate and serum starved overnight in a tissue culture incubator (5% CO2, 37° C.). […] 10 μL of […] streptavidin donor beads (Perkin Elmer) were added to each well, blocked from light with solid black adhesive and shaken at 300 rpm at room temperature for 2 hours. Fluorescence signal was obtained on Envision (Perkin Elmer) by AlphaScreen 384 well HTS protocol.
On the technique in general: Alpha assays give light when donor and acceptor beads are brought close together.

Data set [3] in a line: Pharmacokinetics after single intravenous and oral administration in rats. In kind it is in vivo, Sprague-Dawley rats. The conditions noted are these: iv 1 mg/kg, Clu=Cl/fu,plasma. As to the method: Assessment of pharmacokinetics following single intravenous and oral administration in rats: 3 Sprague-Dawley rats were employed for each compound for each route of administration (iv or oral). For iv administration, 1 mg/kg (dose volume=5 mL/kg) of each compound was administered by intravenous route via […] injection; whereas for oral route, 2.5 mg/kg (dose volume=5 mL/kg) was administered via oral gavage. Blood samples were obtained via tail vein at predose, 0.083, 0.25, 0.5, 1, 2, 4 and 8 hr. In addition, blood samples were also obtained at 24 hr via cardiac puncture (under anesthesia with Isoflurane) for terminal bleeding. All the blood samples were analyzed for the drug concentrations via LC/MS-MS. Pharmacokinetic parameters such as Cmax, Tmax, AUClast, AUCinf, MRTlast, MRTinf, T1/2, Vss and CL were obtained by non-compartmental analysis (NCA).

Setting [4] is: rat, fu,brain from brain slice, read-out: Rat Kp, uu Brain slice.

T2 sequence (P10721 26-976 V560G/D816V): as the sequence (P10721 26-976) above, with V535G, D791V counted along it

`C[C@](N)(c1ccc(F)cc1)c1cnc(N2CCN(c3ncnn4cc(-c5cnn([C@H]6CC[C@@H]6O)c5)cc34)CC2)nc1` (single isomer, unassigned) [Compound 10] yielded a Kd at wt KIT kinase below 10 nM. Besides, the IC50 at PDGFRα D842V is at most 0.3 nM; at KIT D816V it was 0.31 to 1 nM; in data set [2], below 4.5 nM. Also, in data set [1] (setting [4]), the Kp uu at 24 h came out at 0.07. In data set [1], the “Rat Kp” value amounted to 0.18.
In the case of `C[C@H](CO)n1cc(-c2cc3c(N4CCN(c5ncc([C@@](C)(N)c6ccc(F)cc6)cn5)CC4)ncnn3c2)cn1` [Compound 5, (R)-2-(4-(4-(4-(5-((S)-1-Amino-1-(4-fluorophenyl)ethyl)pyrimidin-2-yl)piperazin-1-yl)pyrrolo[2,1-f][1,2,4]triazin-6-yl)-1H-pyrazol-1-yl)propan-1-ol], on PDGFRα D842V, the IC50 was at most 0.3 nM.
In the case of `C[C@](N)(c1ccc(F)cc1)c1cnc(N2CCN(c3ncnn4cc(-c5cnn(C6(CO)CC6)c5)cc34)CC2)nc1` [Compound 9, (S)-(1-(4-(4-(4-(5-(1-Amino-1-(4-fluorophenyl)ethyl)pyrimidin-2-yl)piperazin-1-yl)pyrrolo[2,1-f][1,2,4]triazin-6-yl)-1H-pyrazol-1-yl)cyclopropyl)methanol], the IC50 at PDGFRα D842V was at most 0.3 nM.
On the same count and under the same terms, to `C[C@](N)(c1ccc(F)cc1)c1cnc(N2CCN(c3ncnn4cc(-c5cnn(CC6(O)CC6)c5)cc34)CC2)nc1` [Compound 8, (S)-1-((4-(4-(4-(5-(1-Amino-1-(4-fluorophenyl)ethyl)pyrimidin-2-yl)piperazin-1-yl)pyrrolo[2,1-f][1,2,4]triazin-6-yl)-1H-pyrazol-1-yl)methyl)cyclopropan-1-ol] belongs at most 0.3 nM.
As to `C[C@](N)(c1ccc(F)cc1)c1cnc(N2CCN(c3ncnn4cc(-c5cnn(CCO)c5)cc34)CC2)nc1` [Compound 4, (S)-2-(4-(4-(4-(5-(1-Amino-1-(4-fluorophenyl)ethyl)pyrimidin-2-yl)piperazin-1-yl)pyrrolo[2,1-f][1,2,4]triazin-6-yl)-1H-pyrazol-1-yl)ethanol], on PDGFRα D842V, the IC50 was at most 0.3 nM. Besides, in data set [3], the “Rat IV PK (Clu) (mL/min/kg), unbound clearance” value was “(582) mL/min/kg”.
Take `C[C@](N)(c1ccc(F)cc1)c1cnc(N2CCN(c3ncnn4cc(-c5cnn([C@@H]6CC[C@H]6O)c5)cc34)CC2)nc1` (single isomer, unassigned) [Compound 11]: the Kd at wt KIT kinase is below 10 nM. In addition, the IC50 is at most 0.3 nM on PDGFRα D842V, at most 0.3 nM on KIT D816V and below 4.5 nM in data set [2]. In addition, the Kp uu at 24 h in data set [1] (rat, fu,brain from brain homogenate, read-out: Rat Kp, uu Homogenate) was 0.06; in data set [1] (setting [4]), 0.03. Also, the “Rat Kp” value in data set [1] was 0.13.
Consider `C[C@@H](O)Cn1cc(-c2cc3c(N4CCN(c5ncc([C@@](C)(N)c6ccc(F)cc6)cn5)CC4)ncnn3c2)cn1` [Compound 3], for which the IC50 at PDGFRα D842V was at most 0.3 nM.
`CCn1cc(-c2cc3c(N4CCN(c5ncc([C@@](C)(N)c6ccc(F)cc6)cn5)CC4)ncnn3c2)cn1` [Comparator A, reference compound]: the IC50 on PDGFRα D842V and at KIT D816V was at most 0.3 nM in each case. In addition, the “Unbound concentration, Brain” value in data set [1] (rat, total mean brain concentration x fu,brain (homogenate)) is recorded as 1.7. For the same molecule, the “Unbound concentration, Plasma” value in data set [1] (rat, total mean plasma concentration x fu,p) is reported as 2.02.
Consider `C[C@@H](CO)n1cc(-c2cc3c(N4CCN(c5ncc([C@@](C)(N)c6ccc(F)cc6)cn5)CC4)ncnn3c2)cn1` [Compound 6, (S)-2-(4-(4-(4-(5-((S)-1-amino-1-(4-fluorophenyl)ethyl)pyrimidin-2-yl)piperazin-1-yl)pyrrolo[2,1-f][1,2,4]triazin-6-yl)-1H-pyrazol-1-yl)propan-1-ol], for which the IC50 at PDGFRα D842V was at most 0.3 nM.
Still for that read-out and setting: to `CC(C)(O)Cn1cc(-c2cc3c(N4CCN(c5ncc([C@@](C)(N)c6ccc(F)cc6)cn5)CC4)ncnn3c2)cn1` [Compound 1, (S)-1-(4-(4-(4-(5-(1-Amino-1-(4-fluorophenyl)ethyl)pyrimidin-2-yl)piperazin-1-yl)pyrrolo[2,1-f][1,2,4]triazin-6-yl)-1H-pyrazol-1-yl)-2-methylpropan-2-ol] belongs at most 0.3 nM.
`CC(C)(CO)n1cc(-c2cc3c(N4CCN(c5ncc([C@@](C)(N)c6ccc(F)cc6)cn5)CC4)ncnn3c2)cn1` [Compound 2, (S)-2-(4-(4-(4-(5-(1-amino-1-(4-fluorophenyl)ethyl)pyrimidin-2-yl)piperazin-1-yl)pyrrolo[2,1-f][1,2,4]triazin-6-yl)-1H-pyrazol-1-yl)-2-methylpropan-1-ol]: the IC50 on PDGFRα D842V is at most 0.3 nM.
Regarding `C[C@H](O)Cn1cc(-c2cc3c(N4CCN(c5ncc([C@@](C)(N)c6ccc(F)cc6)cn5)CC4)ncnn3c2)cn1` [Compound 7], on PDGFRα D842V, the IC50 is at most 0.3 nM.
